Several values for one entry are separate records, joined by “and”; a condition that tells them apart may be missing. Identical values can stand only once.
Columns and labels:
Type in all cases: physicochemical
[1] = Dynamic solubility at 37 °C (HPLC; residual solid by XRPD)
Method: Samples of the crystal form A and the crystal form B of ethoximod were taken and prepared into saturated solutions at 37 °C in Fasted State Simulated Intestinal Fluid (FaSSIF, pH = 8.0), Fed State Simulated Intestinal Fluid (FeSSIF, pH = 5.0), Simulated Gastric Fluid (SGF, pH = 1.0), a hydrochloric acid aqueous solution (pH = 1.0), an acetic acid-sodium acetate buffer system (pH = 4.0), a phosphate buffer system (pH = 6.8) and water. After 1 h/2 h/4 h/24 h, filtration was performed to obtain solutions, and actual concentrations of the samples in the solutions were measured through high-performance liquid chromatography (HPLC) (diluting the filtrates as needed). Crystal forms of the solids before and after the experiment were characterized through XRPD to check whether phase transition had occurred. Table 4 Comparison of solubility of crystal form A and crystal form B

[2] = Equilibrium solubility in organic solvents at room temperature (HPLC; solid by XRPD); details: equilibrium for 24 h; for solubility: hydrochloride
Method: The crystal form A and the crystal form B of ethoximod were prepared into solutions at room temperature with ethanol, acetone and ethyl acetate. After equilibrium for 24 h, filtration was performed to obtain saturated solutions, and contents of the samples in the saturated solutions were measured through high-performance liquid chromatography (HPLC) (diluting the filtrates as needed). Crystal forms of the solids before and after the experiment were characterized through XRPD to check whether phase transition had occurred.

[3] = Mechanical stability: grinding, XRPD before and after; details: ground with an agate mortar for 5 min; hydrochloride
Method: 50 mg crystal form A of ethoximod and 50 mg crystal form B of ethoximod were weighed and ground clockwise with an agate mortar for 5 min, and the samples before and after the grinding were subjected to an XRPD test.

[4] = Angle of repose test (flowability); details: hydrochloride
Method: Powder properties of active pharmaceutical ingredients affect the flowability of the active pharmaceutical ingredients. The crystal form A and the crystal form B of ethoximod was subjected to angle of repose and Hausner ratio tests to compare the flowability of the crystal form A and the crystal form B of ethoximod. […] In this experiment, angles of repose of active pharmaceutical ingredients of the two crystal forms were measured through an injection method in combination with a residual cone method, and the flowability of the active pharmaceutical ingredients of the two crystal forms was analyzed. Specific operations are as follows: powders were injected into a center of a disc with a limited diameter, the injection was stopped until materials on an oblique side of a powder accumulation layer automatically flew out along an edge of the disc, a height (H) of a cone was measured, and the angle of repose was calculated according to the diameter (D = 2r) of the disc with tanQ = H/r.

[5] = Bulk density and tap density test, Hausner ratio and compressibility; details: hydrochloride
Method: In this experiment, the measurement was performed by using a tap instrument according to a fixed volume method. Specific operations are as follows: the weighed powders were loaded into a 50 mL graduated cylinder, and the graduated cylinder was fixed on a support; the tap instrument was set to vibrate 55±5 times per minute for 6-8 min; a change in a volume of the powders in the measuring cup was measured. A ratio of a mass of the powders to a volume (50 mL) of the materials before the tap is the bulk density of the powders, and a ratio of the mass of the powders to a volume of the materials after the tap is the tap density of the powders. Methods for converting Hausner ratio and compressibility are as follows, and the description of Hausner ratio and flowability is shown in Table 8: Table 6 Physical properties of crystal form A and crystal form B

[6] = Adhesion test in ziplock bag; details: ziplock bag flipped at 5 rpm, 10 min in each direction; hydrochloride
Method: Each of the crystal form A and the crystal form B of ethoximod was taken and put into a ziplock bag with a fixed size. A seal was sealed, and the ziplock bag was flipped at a rotation speed of 5 rpm for 10 min. A direction was changed, and the ziplock bag continued to be flipped at a fixed rotation speed for 10 min. Raw materials were poured out from the bag, a mass of the remaining raw materials was weighed accurately, and an adhesion rate was calculated.

[7] = Compressibility: tableting evaluation; details: tableting, punch die with a diameter of 6 mm; hydrochloride
Method: The crystal form A and the crystal form B of ethoximod were taken for preparation tableting evaluation. In this experiment, samples were subjected to tableting under the same pressure by using a punch die with a diameter of 6 mm, radial crushing forces F, diameters D and thicknesses L of the tablets were measured after the elastic recovery of the tablets, and the tensile strength of the tablets was calculated according to the following formula: tensile strength Ts = 2F/ΠDL.

[8] = Microscopic morphology and particle size; details: optical microscope, 40× objective lens; hydrochloride
Description: Samples of the crystal form A and the crystal form B of ethoximod were subjected to microscopic morphological researches. The morphology and particle sizes of the crystal form A and the crystal form B were observed under a 40× objective lens of an optical microscope. The crystal form A is irregular and plate-shaped with a raw material particle size of below 35 µm and a long/short diameter ratio of 1 to 2. The crystal form B aggregates and becomes spherical with a raw material particle size of below 20 µm.

[9] = FaSSIF (pH = 8.0), 37 °C, 1 h, hydrochloride
[10] = FaSSIF (pH = 8.0), 37 °C, 2 h, hydrochloride
[11] = FaSSIF (pH = 8.0), 37 °C, 4 h, hydrochloride
[12] = FaSSIF (pH = 8.0), 37 °C, 24 h, hydrochloride

With `CCc1nc(-c2ccc(-c3ccc(CCC(N)(CO)CO)cc3)cc2)co1.Cl` [crystal form B, 2-amino-2-{2-(4'-(2-ethyloxazol-4-yl)-[1,1'-biphenyl]-4-yl)ethyl}-1,3-propylene glycol hydrochloride] as the compound, how does the “crystal form of the solid” value [1, 9] read?
The value was “free alkali”.

And the solubility [1, 9]?
The solubility was 15 µg/mL.

What about the “crystal form of the solid” value [1, 10] of the same compound?
Its value is “free alkali”.

What about the solubility [1, 10] of the same compound?
The solubility was 10 µg/mL.

And the “crystal form of the solid” value [1, 11]?
Its value is “free alkali”.

And the solubility [1, 11]?
Its solubility is 8 µg/mL.

What about the “crystal form of the solid” value [1, 12] of the same compound?
The value was “free alkali”.

What about the solubility [1, 12] of the same compound?
The solubility was 21 µg/mL.

What about the solubility ([1]; FeSSIF (pH = 5.0), 37 °C, 1 h, hydrochloride) of the same compound?
Its solubility is 1480 µg/mL.

And the solubility ([1]; FeSSIF (pH = 5.0), 37 °C, 2 h, hydrochloride)?
The solubility was 1630 µg/mL.

And the solubility ([1]; FeSSIF (pH = 5.0), 37 °C, 4 h, hydrochloride)?
The solubility was 1210 µg/mL.

And the solubility ([1]; FeSSIF (pH = 5.0), 37 °C, 24 h, hydrochloride)?
Its solubility is 1670 µg/mL.

And the solubility ([1]; SGF (pH = 1.0), 37 °C, 1 h, hydrochloride)?
Its solubility is 290 µg/mL.

What about the solubility ([1]; SGF (pH = 1.0), 37 °C, 2 h, hydrochloride) of the same compound?
Its solubility is 280 µg/mL.

And the solubility ([1]; SGF (pH = 1.0), 37 °C, 4 h, hydrochloride)?
Its solubility is 320 µg/mL.

What about the solubility ([1]; SGF (pH = 1.0), 37 °C, 24 h, hydrochloride) of the same compound?
Its solubility is 360 µg/mL.

What about the solubility ([1]; acetic acid-sodium acetate buffer pH = 4.0, 37 °C, 1 h, hydrochloride) of the same compound?
Its solubility is 1450 µg/mL.

What about the solubility ([1]; acetic acid-sodium acetate buffer pH = 4.0, 37 °C, 2 h, hydrochloride) of the same compound?
The solubility was 1780 µg/mL.

What about the solubility ([1]; acetic acid-sodium acetate buffer pH = 4.0, 37 °C, 4 h, hydrochloride) of the same compound?
Its solubility is 1930 µg/mL.

And the solubility ([1]; acetic acid-sodium acetate buffer pH = 4.0, 37 °C, 24 h, hydrochloride)?
Its solubility is 2610 µg/mL.

What about the solubility ([1]; hydrochloric acid aqueous solution pH = 1.0, 37 °C, 1 h, hydrochloride) of the same compound?
The solubility was 300 µg/mL.

And the solubility ([1]; hydrochloric acid aqueous solution pH = 1.0, 37 °C, 2 h, hydrochloride)?
Its solubility is 410 µg/mL.

And the solubility ([1]; hydrochloric acid aqueous solution pH = 1.0, 37 °C, 4 h, hydrochloride)?
The solubility was 320 µg/mL.

And the solubility ([1]; hydrochloric acid aqueous solution pH = 1.0, 37 °C, 24 h, hydrochloride)?
The solubility was 360 µg/mL.

And the “crystal form of the solid” value ([1]; phosphate buffer pH = 6.8, 37 °C, 1 h)?
Its value is “free alkali”.

What about the “crystal form of the solid” value ([1]; phosphate buffer pH = 6.8, 37 °C, 2 h) of the same compound?
Its value is “free alkali”.

What about the solubility ([1]; phosphate buffer pH = 6.8, 37 °C, 2 h, hydrochloride) of the same compound?
The solubility was “lower than limit of detection”.

What about the “crystal form of the solid” value ([1]; phosphate buffer pH = 6.8, 37 °C, 4 h) of the same compound?
The value was “free alkali”.

And the solubility ([1]; phosphate buffer pH = 6.8, 37 °C, 4 h, hydrochloride)?
Its solubility is “lower than limit of detection”.

And the “crystal form of the solid” value ([1]; phosphate buffer pH = 6.8, 37 °C, 24 h)?
Its value is “free alkali”.

And the solubility ([1]; phosphate buffer pH = 6.8, 37 °C, 24 h, hydrochloride)?
The solubility was 1.9 µg/mL.

What about the solubility at 1 h ([1]; phosphate buffer, 37 °C, pH 6.8, aqueous buffer, thermodynamic from solid, phosphate buffer pH = 6.8, 37 °C, 1 h) of the same compound?
Its solubility at 1 h is 0.1 µg/mL.

And the solubility ([1]; water, 37 °C, 1 h, hydrochloride)?
The solubility was 1690 µg/mL.

What about the solubility ([1]; water, 37 °C, 2 h, hydrochloride) of the same compound?
Its solubility is 1650 µg/mL.

What about the solubility ([1]; water, 37 °C, 4 h, hydrochloride) of the same compound?
The solubility was 2500 µg/mL.

And the solubility ([1]; water, 37 °C, 24 h, hydrochloride)?
The solubility was 2160 µg/mL.

And the solubility ([2]; acetone)?
The solubility was 20 µg/mL.

What about the solid-state crystal form ([2]; ethanol) of the same compound?
Its solid-state crystal form is “C, with relatively poor crystallinity”.

What about the solubility ([2]; ethanol) of the same compound?
Its solubility is 5050 µg/mL.

And the solubility ([2]; ethyl acetate)?
Its solubility is 10 µg/mL.

And the “crystal form after grinding (XRPD)” value [3]?
Its value is “partially crystal transformed into a crystal form C”.

And the “Average of Angles of Repose” value [4]?
The value was 52.3 °.

What about the “Angle of Repose” value ([4]; single determination) of the same compound?
The value was 50.2 ° and 54.5 °.

What about the Compressibility ([5]; (tap density - bulk density)/tap density) of the same compound?
Its Compressibility is 62.0.

What about the “Bulk Density” value [5] of the same compound?
Its value is 0.0742 g/mL.

What about the “Tap Density” value [5] of the same compound?
The value was 0.1953 g/mL.

And the “Hausner Ratio” value ([5]; tap density/bulk density)?
Its value is 2.6.

What about the “Adhesion Amount Per Unit Area” value [6] of the same compound?
The value was 0.001 g/m^2.

What about the “Weight of API Adsorbed in Bag” value [6] of the same compound?
The value was 0.0735 g.

What about the “Experimental Phenomenon” value [7] of the same compound?
Its value is “relatively severe sticking”.

What about the “raw material particle size” value [8] of the same compound?
The value was “below 20 µm”.

Source: EP4640674A1, “CRYSTAL FORMS OF ETHOXIMOD, PREPARATION METHOD THEREFOR AND USE THEREOF” (Jiankuan (Suzhou) Biotechnology Co., Ltd, priority 2022, dated 2024)
